This is an account of results in patent US20230414715A1, “TRAIL COMPOUNDS FOR REDUCING CANCER TREAMENT SIDE EFFECTS” (BROWN UNIVERSITY, priority 2022, published 2023).

Data set [1] concerns serum cytokines. Nature of the data set: Serum cytokine analysis (Luminex) of irradiated mice. The class given is in vivo, mouse. The following applies: treated versus control. Here is the method: (§1) Animal studies were carried out at Brown University facilities with approval from Brown University IACUC. C57B1/6 mice (Taconic), mice with bi-allelic loss of TRAIL Death Receptor-(DR5-/-) in a C57B1/6 background, and mice with bi-allelic loss of TRAIL (TRAIL -/-) in a C57B1/6 background were given a single whole-thorax x-ray (Philips RT250) irradiation dose of 20 Gy with shielding of other organs. 8-15-week-old male and female mice of each genotype were used. […] Treatment was continued for two weeks, where TLY012 was administered twice a week and ONC201 was administered once a week. For each genetic background, two mice received a control PO, two mice received TLY012 IP, and two mice received ONC201 PO. Mice were weighed twice a week, and 13 days post-irradiation all mice were euthanized. Organs were harvested from the mice and 600 μL of blood was collected via cardiac puncture for serum cytokine analysis. Organs were preserved in 10% formalin then embedded in paraffin and sectioned at a distance of 5 μm. […] TRAIL-/- female mice were also subjected to a survival study with a single whole-thorax radiation doses of 15 Gy or 18 Gy treated with the same regimen of TLY012 or control (n=2/radiation dose/treatment) (FIG. 3B). In order to determine the lethal dose of radiation for C57B1/6 mice, female C57B1/6 mice were treated with a single dose of whole-thorax irradiation of 25 Gy in a survival study where they were treated with either TLY012 or remained control (n=6/treatment) (FIG. 3C).
All mouse serum samples were analyzed by a custom R&D systems Murine Premixed Multi- Analyte Kit (R&D Systems, Inc., Minneapolis, MN). The panel was run on a Luminex 200 Instrument (Luminex Corporation, Austin, TX) according to the manufacturer's instructions. Murine serum levels of Angiopoietin-2, BAFF/BLyS/TNFSF13B, CCL2/JE/MCP-1, CCL3/MIP-1 alpha, CCL4/MIP-1 beta, CCL5/RANTES, CCL7/MCP-3/MARC, CCL11/Eotaxin, CCL12/MCP-5, CCL20/MIP-3 alpha, CCL21/6Ckine, CCL22/MDC, Chitinase 3-like 1, CXCL1/GRO alpha/KC/CINC-1, CXCL10/IP-10/CRG-2, CXCL12/S DF- 1 alpha, Dkk-1, FGF basic/FGF2/bFGF, GDF-15, GM-CSF, Granzyme B, IFN-gamma, IGF-I/IGF-1, IL-1 alpha/IL-1F1, IL-1 beta/IL-1F2, IL-2, IL-3, IL-4, IL-6, IL-7, IL-10, IL-13, IL-16, IL-17/IL-17A, IL-27, IL-33 M-CSF, MMP-3, MMP-8, MMP-12, Prolactin, TWEAK/TNFSF12, VEGF, and VEGFR2/KDR/Flk-1 were measured. Analyte values were reported in picograms per milliliter (pg/mL). […] Latent TGF-β was activated in samples using 1 N HCl and samples were neutralized with 1.2 N NaOH/0.5 M HEPES. Samples were assayed immediately after neutralization.

Data set [2] relates to e0771 orthotopic breast tumors in C57B1/6 mice. Nature of the data set: Orthotopic e0771 breast tumor model with 20 Gy whole-thorax irradiation.
Experimental: C57B1/6 female mice (Taconic) were injected with 100,000 cells of murine breast cancer (e0771) in the right second mammary fat pad on day 0 of the experiment. […] Each group (n=3) also received a single whole-thorax x-ray irradiation dose of 20 Gy with shielding of other organs. One group (n=3) received no treatment and no radiation. The long axis and short axis of the tumors were measured using calipers and recorded twice a week. On day 18 all mice were euthanized at a humane endpoint, which was defined by 20% weight loss and/or a tumor volume of 2000 mm^3 (˜10% of body weight). Organs and tumors were harvested from the mice and 600 μL of blood was collected via cardiac puncture for serum cytokine analysis. Once tumors were extracted, they were weighed and measured to determine final volume and weight. Pulse oximeter readings were taken initially before radiation treatment and before sacrifice 9 days post-radiation (MouseSTAT Jr. Pulse Oximeter, Kent Scientific). When mice were under anesthesia the sensor of the MouseSTAT Jr. was placed on the hind right paw for 30 seconds. The highest and lowest values shown by the pulse oximeter during this time were recorded and then averaged together. The mean of all the averages per treatment group was then calculated.
For data set [3], the system named is duodenum, liver or heart. The data set is described as follows: H&E of duodenum, liver and heart of irradiated, treated mice. As to conditions: 20 Gy irradiated mice, 2 weeks treatment. Here is the method:
as §1, with “In order to determine the lethal dose of radiation for C57B1/6 mice, female C57B1/6 mice were treated with a single dose of whole-thorax irradiation of 25 Gy in a survival study where they were treated with either TLY012 or remained control (n=6/treatment) (FIG. 3C).” left out

Data set [4] has as its system C57B1/6 mice. Nature of the data set: Radiation pneumonitis after whole-thorax x-ray irradiation, H&E of lung, wild-type mice. The class given is in vivo, mouse. As to the method: However, before embarking on the planned experiment, we decided to perform a preliminary, short-term treatment feasibility experiment to ensure some mouse survival after 20 Gy of thoracic irradiation (FIG. 1B). The preliminary experiment was performed with WT and DR5-null mice that were irradiated with 20 Gy, and this was followed by either weekly doses of TIC10/ONC201 (100 mg/kg for total of two doses) or twice a week doses of TLY012 (10 mg/kg for total of four doses) for 2 weeks.
as §1

Data set [5] deals with lung tissue in irradiated C57B1/6 mice. The data set is described as follows: Immunohistochemistry of irradiated lung tissue. The class given is in vivo, mouse. An excerpt: Paraffin embedded sections of tissue were deparaffinized in xylene and rehydrated through graded ethanol solutions to phosphate-buffered saline (PBS). Heat-induced antigen retrieval (in 0.01 M citrate buffer; pH 6.0), endogenous peroxidase blocking (3% H202), and blocking were done using a standard protocol. […] Slides were developed with diaminobenzidine substrate (Vector Laboratories SK-4100) and counterstained with hematoxylin (Richard Allen Scientific). Slides were scanned (Olympus VS200) and representative brightfield images were taken and analyzed with OlyVIA software.

Data set [6] has as its system TRAIL-/- mice. The data set is described as follows: Radiation pneumonitis after whole-thorax x-ray irradiation, H&E of lung, TRAIL-null mice. The class given is in vivo, mouse. The following applies: TRAIL-/- male or female mice, 20 Gy thoracic irradiation, two weeks treatment, FIG. 2A, B. Here is the method: as §1, with “In order to determine the lethal dose of radiation for C57B1/6 mice, female C57B1/6 mice were treated with a single dose of whole-thorax irradiation of 25 Gy in a survival study where they were treated with either TLY012 or remained control (n=6/treatment) (FIG. 3C).” left out

The mark [7] stands for this setting: irradiated rescued versus irradiated control lung tissues.
Setting [8] is: normal or inflamed lung, treated versus irradiated control.

Regarding `Cc1ccccc1CN1C(=O)C2=C(CCN(Cc3ccccc3)C2)N2CCN=C12` [ONC201, reference compound], in data set [1], the “FGF basic serum level” value is listed as “increase” and the IGF1 serum level result is “upregulated”. In data set [2] (20 Gy on day 9, treatment days 9, 12, 16, sacrifice day 18, FIG. 6B, C), the “effect on anti-tumor efficacy of radiation (tumor weight and volume)” value was “no evidence that ONC201, TLY012 or their combination reduced efficacy of treatment”. For the same molecule, in data set [2] (9 days post-radiation, versus irradiated mice without further treatment, FIG. 6D), the “oxygen saturation (pulse oximetry)” value is on record as “partially rescued”. Moreover, in data set [2] (tumor-bearing mice, 20 Gy), the “rescue from radiation induced pneumonitis” value is given as “more potent by TLY012 than with ONC201”. For the same molecule, in data set [3], the “toxicities in duodenum, liver or heart” value was “No obvious toxicities”. The protection from pneumonitis entry in data set [4] (WT mice, 20 Gy thoracic irradiation, preliminary experiment, 2 weeks treatment, versus irradiated control, FIG. 1C) is “qualitative evidence of protection from pneumonitis”. Besides, in data set [4] (irradiated C57B1/6 mice, FIG. 2), the “rescue from radiation-induced pneumonitis” value is “could rescue mice from radiation-induced pneumonitis”. Besides, in data set [5] (setting [7]), the NFkB entry is recorded as “no differences” and the proliferation result was “no differences”. Moreover, in data set [5] (setting [8]), the “DNA double strand break marker gamma-H2AX” value was “no difference” and the “T-cell infiltration (CD3-epsilon)” value was “no difference”. Moreover, the collagen in lungs entry in data set [5] (rescued lungs versus irradiated control) is given as “less collagen”. Further, the “rescue from radiation pneumonitis” value in data set [6] is “did not”.
